US20240092758A1, “IMIDAZOLO INDAZOLE COMPOUNDS AS JAK INHIBITORS” (Theravance Biopharma R&D IP, LLC, priority 2021, published 2024)

What was measured:
[1] = target: JAK1 (Homo sapiens (Human), UniProt P23458); assay: Biochemical JAK kinase assay (LanthaScreen), JAK1; settings: for Ki: read-out: JAK1 pKi (converted)
Procedure: (§1) A panel of four LanthaScreen JAK biochemical assays (JAK1, 2, 3 and Tyk2) were carried in a common kinase reaction buffer (50 mM HEPES, pH 7.5, 0.01% Brij-35, 10 mM MgCl2, and 1 mM EGTA). Recombinant GST-tagged JAK enzymes and a GFP-tagged STAT1 peptide substrate were obtained from Life Technologies.
(§2) Serially diluted compounds were pre-incubated with each of the four JAK enzymes and the substrate in white 384-well microplates (Corning) at ambient temperature for 1 h. ATP was subsequently added to initiate the kinase reactions in 10 μL total volume, with 1% DMSO. The final enzyme concentrations for JAK1, 2, 3 and Tyk2 are 4.2 nM, 0.1 nM, 1 nM, and 0.25 nM respectively; the corresponding Km ATP concentrations used are 25 μM, 3 μM, 1.6 μM, and 10 μM; while the substrate concentration is 200 nM for all four assays. Kinase reactions were allowed to proceed for 1 hour at ambient temperature before a 10 μL preparation of EDTA (10 mM final concentration) and Tb-anti-pSTAT1 (pTyr701) antibody (Life Technologies, 2 nM final concentration) in TR-FRET dilution buffer (Life Technologies) was added. The plates were allowed to incubate at ambient temperature for 1 h before being read on the EnVision reader (Perkin Elmer). Emission ratio signals (520 nm/495 nm) were recorded and utilized to calculate the percent inhibition values based on DMSO and background controls.
(§3) For dose-response analysis, percent inhibition data were plotted vs. compound concentrations, and IC50 values were determined from a 4-parameter robust fit model with the Prism software (GraphPad Software). Results were expressed as pIC50 (negative logarithm of IC50) and subsequently converted to pKi (negative logarithm of dissociation constant, Ki) using the Cheng-Prusoff equation.
(§4) Test compounds having a lower Ki value or higher pKi value in the four JAK assays show greater inhibition of JAK activity.

[2] = target: JAK2 (Homo sapiens (Human), UniProt O60674); assay: Biochemical JAK kinase assay (LanthaScreen), JAK2; settings: for Ki: read-out: JAK2 pKi (converted)
Procedure: as §1, §2, §3, §4

[3] = test system: IL-13 induced STAT6 phosphorylation in BEAS-2B human lung epithelial cells; assay: Cellular JAKI potency assay (BEAS-2B); format: cell-based; settings: Homo sapiens, BEAS-2B, BEAS-2B cells, read-out: BEAS2B pIC50 (converted)
Procedure: The JAKI cellular potency assay was carried out by measuring inhibition of interleukin-13 (IL-13, R&D Systems) induced STAT6 phosphorylation in BEAS-2B human lung epithelial cells (ATCC). BEAS-2B cells were grown at 37° C. in a 5% CO2 humidified incubator in 50% DMEM/50% F-12 medium (Life Technologies) supplemented with 10% FBS (Hyclone), 100 U/mL penicillin, 100 μg/mL streptomycin (Life Technologies), and 2 mM GlutaMAX (Life Technologies). On day 1 of the assay, cells were seeded at a 7,500 cells/well density in white poly-D-lysine-coated 384-well plates (Corning) with 25 μL medium and were allowed to adhere overnight in the incubator. On day 2 of the assay, the medium was removed and replaced with 12 μL of assay buffer (Hank's Balanced Salt Solution/HBSS, 25 mM HEPES, and 1 mg/ml bovine serum albumin/BSA) containing dose-responses of test compounds. Compounds were serially diluted in DMSO and then diluted another 1000-fold in media to bring the final DMSO concentration to 0.1%. Cells were incubated with test compounds at 37° C. for 1 h and followed by the addition of 12 μl of pre-warmed IL-13 (80 ng/mL in assay buffer) for stimulation. After incubating at 37° C. for 30 min, the assay buffer (containing compound and IL-13) was removed, and 10 μL of cell lysis buffer (25 mM HEPES, 0.1% SDS, 1% NP-40, 5 mM MgCl2, 1.3 mM EDTA, 1 mM EGTA, supplemented with Complete Ultra mini protease inhibitors and PhosSTOP from Roche Diagnostics). The plates were shaken at ambient temperature for 30 min before the addition of detection reagents. Levels of pSTAT6 were measured using the AlphaLISA SureFire Ultra pSTAT6 (Tyr641) assay kit from PerkinElmer. For dose-response analysis, percent inhibition data were plotted vs. compound concentrations, and IC50 values were determined from a 4-parameter robust fit model with the Graphpad Prism software. Results are expressed as the negative logarithm of the IC50 value, pIC50.
Test compounds having a lower IC50 value or higher pIC50 value in this assay show greater inhibition of IL-13 induced STAT6 phosphorylation.

Chain of JAK2 (O60674 whole entry): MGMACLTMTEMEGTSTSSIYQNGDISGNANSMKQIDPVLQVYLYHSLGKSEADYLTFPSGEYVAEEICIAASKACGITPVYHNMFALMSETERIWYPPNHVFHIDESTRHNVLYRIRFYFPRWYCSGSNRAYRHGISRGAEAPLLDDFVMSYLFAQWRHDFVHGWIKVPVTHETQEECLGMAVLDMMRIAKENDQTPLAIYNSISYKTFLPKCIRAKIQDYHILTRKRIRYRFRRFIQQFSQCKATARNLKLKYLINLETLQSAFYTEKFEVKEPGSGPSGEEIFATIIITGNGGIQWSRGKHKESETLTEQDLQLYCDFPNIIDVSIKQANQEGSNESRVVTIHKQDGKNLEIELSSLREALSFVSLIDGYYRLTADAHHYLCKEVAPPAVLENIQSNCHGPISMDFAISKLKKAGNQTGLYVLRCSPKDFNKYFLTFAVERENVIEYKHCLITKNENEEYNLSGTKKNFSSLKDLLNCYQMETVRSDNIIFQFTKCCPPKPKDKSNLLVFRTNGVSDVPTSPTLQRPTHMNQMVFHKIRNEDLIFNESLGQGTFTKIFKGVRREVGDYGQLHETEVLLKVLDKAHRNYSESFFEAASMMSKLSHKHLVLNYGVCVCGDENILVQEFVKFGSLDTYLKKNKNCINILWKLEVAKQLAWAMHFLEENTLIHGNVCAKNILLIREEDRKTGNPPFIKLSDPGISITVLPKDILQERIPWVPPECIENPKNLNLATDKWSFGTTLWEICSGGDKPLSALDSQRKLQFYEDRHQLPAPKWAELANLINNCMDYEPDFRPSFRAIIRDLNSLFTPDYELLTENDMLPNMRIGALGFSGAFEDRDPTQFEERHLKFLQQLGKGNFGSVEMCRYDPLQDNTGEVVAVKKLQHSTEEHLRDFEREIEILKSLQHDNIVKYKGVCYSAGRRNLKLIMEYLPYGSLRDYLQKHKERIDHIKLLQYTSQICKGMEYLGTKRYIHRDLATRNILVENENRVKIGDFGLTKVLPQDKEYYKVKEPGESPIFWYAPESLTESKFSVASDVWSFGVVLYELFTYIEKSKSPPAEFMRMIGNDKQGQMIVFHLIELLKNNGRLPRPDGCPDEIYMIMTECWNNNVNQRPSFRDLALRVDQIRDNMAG
Chain of JAK1 (P23458 whole entry): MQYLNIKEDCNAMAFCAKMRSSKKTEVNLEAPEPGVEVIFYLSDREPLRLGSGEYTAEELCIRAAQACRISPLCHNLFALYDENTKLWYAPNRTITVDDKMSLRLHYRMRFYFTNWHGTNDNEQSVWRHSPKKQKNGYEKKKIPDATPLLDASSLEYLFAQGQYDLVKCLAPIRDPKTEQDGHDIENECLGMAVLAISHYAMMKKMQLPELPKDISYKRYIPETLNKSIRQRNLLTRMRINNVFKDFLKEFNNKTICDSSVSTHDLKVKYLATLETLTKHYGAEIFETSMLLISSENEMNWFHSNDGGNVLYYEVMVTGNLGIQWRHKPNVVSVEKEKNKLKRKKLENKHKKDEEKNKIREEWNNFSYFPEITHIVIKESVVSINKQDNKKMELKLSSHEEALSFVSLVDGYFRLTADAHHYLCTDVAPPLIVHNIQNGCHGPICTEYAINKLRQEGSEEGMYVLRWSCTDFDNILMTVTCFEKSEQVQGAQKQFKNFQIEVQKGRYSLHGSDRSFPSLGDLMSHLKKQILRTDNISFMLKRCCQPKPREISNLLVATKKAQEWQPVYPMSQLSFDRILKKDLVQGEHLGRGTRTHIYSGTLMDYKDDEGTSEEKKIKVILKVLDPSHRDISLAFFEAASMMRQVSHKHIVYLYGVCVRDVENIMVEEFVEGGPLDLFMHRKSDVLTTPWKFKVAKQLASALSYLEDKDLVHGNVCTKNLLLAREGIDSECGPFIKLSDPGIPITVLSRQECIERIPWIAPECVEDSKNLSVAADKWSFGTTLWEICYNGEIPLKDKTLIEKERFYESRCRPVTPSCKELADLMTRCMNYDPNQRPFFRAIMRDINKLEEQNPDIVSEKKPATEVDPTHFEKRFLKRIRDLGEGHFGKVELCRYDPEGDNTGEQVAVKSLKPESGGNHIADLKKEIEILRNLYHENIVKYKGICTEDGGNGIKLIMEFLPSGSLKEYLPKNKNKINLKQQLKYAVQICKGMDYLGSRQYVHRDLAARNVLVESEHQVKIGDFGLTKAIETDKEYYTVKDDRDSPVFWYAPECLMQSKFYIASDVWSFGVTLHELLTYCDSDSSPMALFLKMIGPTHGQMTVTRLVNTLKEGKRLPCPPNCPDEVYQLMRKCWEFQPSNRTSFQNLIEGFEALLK

In the case of `CCc1cc(O)ccc1-c1ccc2c(-c3nc(C4=CCN(CC5COC5)C4)c[nH]3)n[nH]c2c1` [Example 71], the “JAK1 pKi” value [1] is reported as “A (A represents a pKi value ≥10 (Ki≤0.1 nM))”, the “JAK2 pKi” value [2] is reported as “A (A represents a pKi value ≥10 (Ki≤0.1 nM))” and the IC50 [3] is reported as 3.16 to 10 nM.
With `CCc1cc(O)ccc1-c1ccc2c(-c3nc(C4=CCN(C5CCOCC5)C4)c[nH]3)n[nH]c2c1` [Example 72] the “JAK1 pKi” value [1] was “A (A represents a pKi value ≥10 (Ki≤0.1 nM))”, the “JAK2 pKi” value [2] was “A (A represents a pKi value ≥10 (Ki≤0.1 nM))” and the IC50 [3] was 3.16 to 10 nM.
In the case of `CCc1cc(O)ccc1-c1ccc2c(-c3nc(C4=CCN(C5COC5)C4)c[nH]3)n[nH]c2c1` [Example 73], the Ki [1] is reported as 0.1 to 1 nM, the “JAK2 pKi” value [2] is reported as “A (A represents a pKi value ≥10 (Ki≤0.1 nM))” and the IC50 [3] is reported as 10 to 31.6 nM.
In the case of `CCc1cc(O)ccc1-c1ccc2c(-c3nc(C4=CCN(CC5COC5)C4)c[nH]3)n[nH]c2c1F` [Example 74], the Ki [1] is reported as 0.1 to 1 nM, the “JAK2 pKi” value [2] is reported as “A (A represents a pKi value ≥10 (Ki≤0.1 nM))” and the IC50 [3] is reported as 10 to 31.6 nM.
`CCc1cc(O)ccc1-c1ccc2c(-c3nc(C4=CCN(CCSC)CC4)c[nH]3)n[nH]c2c1` [Example 76] gave a Ki [1] of 0.1 to 1 nM, a Ki [2] of 0.1 to 1 nM and an IC50 [3] of 10 to 31.6 nM.
For `CCc1cc(O)ccc1-c1ccc2c(-c3nc(C4=CCN(CCS(C)(=O)=O)CC4)c[nH]3)n[nH]c2c1` [Example 77], the Ki [1] was 0.1 to 1 nM, the “JAK2 pKi” value [2] was “A (A represents a pKi value ≥10 (Ki≤0.1 nM))” and the IC50 [3] was 10 to 31.6 nM.
`CCc1cc(O)ccc1-c1ccc2c(-c3nc(C4=CCN(CC(=O)NC)CC4)c[nH]3)n[nH]c2c1` [Example 78] was tested, and the Ki [1] was 0.1 to 1 nM, the “JAK2 pKi” value [2] was “A (A represents a pKi value ≥10 (Ki≤0.1 nM))” and the IC50 [3] was 10 to 31.6 nM.
With `CCc1cc(O)ccc1-c1ccc2c(-c3nc(C4=CCN(CC(=O)NC(C)(C)C)CC4)c[nH]3)n[nH]c2c1` [Example 79] the Ki [1] was 0.1 to 1 nM, the Ki [2] was 0.1 to 1 nM and the IC50 [3] was 10 to 31.6 nM.
With `CCc1cc(O)ccc1-c1ccc2c(-c3nc(C4=CCN(CCS(=O)(=O)NC)CC4)c[nH]3)n[nH]c2c1` [Example 80] the Ki [1] was 0.1 to 1 nM, the “JAK2 pKi” value [2] was “A (A represents a pKi value ≥10 (Ki≤0.1 nM))” and the IC50 [3] was 10 to 31.6 nM.
`CCc1cc(O)ccc1-c1ccc2c(-c3nc(C4=CCN(CCS(C)(=O)=O)CC4)c[nH]3)n[nH]c2c1F` [Example 82] showed a Ki [1] of 0.1 to 1 nM, a Ki [2] of 0.1 to 1 nM and an IC50 [3] of 10 to 31.6 nM.
For `CCc1cc(O)ccc1-c1ccc2c(-c3nc(C4=CCN(CC(=O)NC(C)(C)C)CC4)c[nH]3)n[nH]c2c1F` [Example 83], the Ki [1] was 1 to 10 nM, the Ki [2] was 0.1 to 1 nM and the IC50 [3] was 31.6 to 100 nM.
With `CCc1cc(O)ccc1-c1ccc2c(-c3nc(C4=CCN(C5CCNC5=O)CC4)c[nH]3)n[nH]c2c1F` (stereo not drawn) [Example 84] the Ki [1] was 0.1 to 1 nM, the Ki [2] was 0.1 to 1 nM and the IC50 [3] was 31.6 to 100 nM.
`CCc1cc(O)ccc1-c1ccc2c(-c3nc(C4=CCN(CCS(=O)(=O)NC)CC4)c[nH]3)n[nH]c2c1F` [Example 85] gave a Ki [1] of 0.1 to 1 nM, a Ki [2] of 0.1 to 1 nM and an IC50 [3] of 31.6 to 100 nM.
`CCc1cc(O)ccc1-c1ccc2c(-c3nc(C4=CCCN(CCSC)C4)c[nH]3)n[nH]c2c1` [Example 86] gave a Ki [1] of 0.1 to 1 nM, a Ki [2] of 0.1 to 1 nM and an IC50 [3] of 10 to 31.6 nM.
For `CCc1cc(O)ccc1-c1ccc2c(-c3nc(C4=CCCN(CCS(C)(=O)=O)C4)c[nH]3)n[nH]c2c1` [Example 87], the Ki [1] was 0.1 to 1 nM, the “JAK2 pKi” value [2] was “A (A represents a pKi value ≥10 (Ki≤0.1 nM))” and the IC50 [3] was 10 to 31.6 nM.
For `CCc1cc(O)ccc1-c1ccc2c(-c3nc(C4=CCCN(CC(=O)NC)C4)c[nH]3)n[nH]c2c1` [Example 88], the Ki [1] was 0.1 to 1 nM, the “JAK2 pKi” value [2] was “A (A represents a pKi value ≥10 (Ki≤0.1 nM))” and the IC50 [3] was 10 to 31.6 nM.
In the case of `CCc1cc(O)ccc1-c1ccc2c(-c3nc(C4=CCCN(CCS(=O)(=O)NC)C4)c[nH]3)n[nH]c2c1` [Example 89], the Ki [1] is reported as 0.1 to 1 nM, the “JAK2 pKi” value [2] is reported as “A (A represents a pKi value ≥10 (Ki≤0.1 nM))” and the IC50 [3] is reported as 10 to 31.6 nM.
Molecule `CCc1cc(O)ccc1-c1ccc2c(-c3nc(C4=CCCN(CCS(C)(=O)=O)C4)c[nH]3)n[nH]c2c1F` [Example 91] has a Ki [1] of 0.1 to 1 nM, a Ki [2] of 0.1 to 1 nM and an IC50 [3] of 10 to 31.6 nM.
`CCc1cc(O)ccc1-c1ccc2c(-c3nc(C4=CCCN(CC(=O)NC)C4)c[nH]3)n[nH]c2c1F` [Example 92] gave a Ki [1] of 1 to 10 nM, a Ki [2] of 0.1 to 1 nM and an IC50 [3] of 10 to 31.6 nM.
